From US12178815B2, “Regimens for treating HIV infections and aids” (priority 2017, dated 2024)
≈ marks a conversion by molar mass, not a printed value. Read-outs that look alike come from different tables or passages of the source.

Key:
[1] = test system: virus with reverse transcriptase mutations K103N, E138G, and K238T and integrase mutation Q148R; test: Phenotypic resistance of virus from subject with protocol-defined virologic failure; design: species or system HIV-1; details: eight-week group subject, RT K103N
[2] = LATTE-2 plasma pharmacokinetics (trough concentrations); type: in vivo, human; details: for C0 relative to in vitro PA-IC90 / C0 at 48 week: Week 48; for C0 at 48 week: human, plasma, im
Protocol: Pharmacokinetic plasma concentrations following long-acting cabotegravir+rilpivirine administration are summarized using evaluable data that met sample collection window criteria, excluding samples affected by dosing errors (wrong dose) or oral bridging. Sampling windows for intramuscular dosing were set relative to the previous injection as follows: ±0.5 hours for two-hour postdose samples; ±one day for one-week postinjection visits; ±two days for predose samples in the four-week group, Weeks 4 and 8 cabotegravir samples in the eight-week group, and midcycle concentrations four weeks postinjection in the eight-week group; and ±four days for predose samples in the eight-week group (except for Weeks 4 and 8 cabotegravir samples, as described earlier).

wild-type HIV-1 = test: in vitro protein-adjusted 90% inhibitory concentration (PA-IC90); type: cell-based; details: against wild-type HIV-1
[3] = test system: virus with mixture at integrase codon 269 (R269R/G); test: Susceptibility of virus from subject with protocol-defined virologic failure (integrase R269R/G); design: species or system HIV-1; details: eight-week group subject

C[C@@H]1CCO[C@H]2Cn3cc(C(=O)NCc4ccc(F)cc4F)c(=O)c(O)c3C(=O)N12 [dolutegravir]
Phenotypic resistance/sensitivity of subject's virus [1]: sensitive

O=C1Nc2ccc(Cl)cc2[C@@](C#CC2CC2)(C(F)(F)F)O1 [efavirenz]
Phenotypic resistance/sensitivity of subject's virus [1]: phenotypic resistance

COc1cc2c(cc1Cc1cccc(Cl)c1F)c(=O)c(C(=O)O)cn2[C@H](CO)C(C)C [elvitegravir]
Phenotypic resistance/sensitivity of subject's virus [1]: phenotypic resistance

Cc1cc(/C=C/C#N)cc(C)c1Nc1ccnc(Nc2ccc(C#N)cc2)n1 [rilpivirine]
Phenotypic resistance/sensitivity of subject's virus [1]: phenotypic resistance
C0 relative to in vitro PA-IC90 ([2]; eight-week IM LA): 5 fold
C0 relative to in vitro PA-IC90 ([2]; four-week IM LA): 8 fold
C0 at 48 week ([2]; four-week IM LA, read-out: geometric mean C0): 94.6 ng/mL
Accumulation on repeated IM dosing ([2]; through 48 weeks of dosing, both IM arms): Accumulation of rilpivirine was observed
IC90 (wild-type HIV-1; Human immunodeficiency virus 1, read-out: in vitro PA-IC90): 0.012 µg/mL (≈ 0.0327 µM)

Cc1ccnc2c1NC(=O)c1cccnc1N2C1CC1 [nevirapine]
Phenotypic resistance/sensitivity of subject's virus [1]: phenotypic resistance

C[C@H]1CO[C@@H]2Cn3cc(C(=O)NCc4ccc(F)cc4F)c(=O)c(O)c3C(=O)N12 [cabotegravir, (3S,11aR)—N-[(2,4-difluorophenyl)methyl]-2,3,5,7,11,11a-hexahydro-6-hydroxy-3-methyl-5,7-dioxo-oxazolo[3,2-a]pyrido[1,2-d] pyrazine-8-carboxamide]
Phenotypic resistance/sensitivity of subject's virus [1]: phenotypic resistance
Effect of emergent integrase R269R/G mixture on susceptibility [3]: did not decrease
C0 relative to in vitro PA-IC90 ([2]; eight-week IM LA): 9 fold
C0 relative to in vitro PA-IC90 ([2]; four-week IM LA): 16 fold
C0 relative to in vitro PA-IC90 ([2]; oral 30 mg once daily): 27 fold
C0 at 48 week ([2]; eight-week IM LA, read-out: geometric mean trough concentration (C0)): 1460 ng/mL
C0 at 48 week ([2]; four-week IM LA, read-out: geometric mean trough concentration (C0)): 2580 ng/mL
IC90 (wild-type HIV-1; Human immunodeficiency virus 1, read-out: in vitro protein-adjusted 90% inhibitory concentration (PA-IC90)): 0.166 µg/mL (≈ 0.41 µM)

Cc1nnc(C(=O)NC(C)(C)c2nc(C(=O)NCc3ccc(F)cc3)c(O)c(=O)n2C)o1 [raltegravir]
Phenotypic resistance/sensitivity of subject's virus [1]: phenotypic resistance
